In brackets after ≈: the same amount, converted by molar mass.
Columns and labels:
[1] = Solubility of the compound in 0.1 M phosphate buffer/[…] KCl at pH 7.4 after 24 hrs; type: physicochemical
[2] = Intrinsic clearance in human hepatocytes; type: ADME, cell-based, Hepatocyte; details: read-out: CLH
[3] = Intrinsic clearance in rat hepatocytes; type: ADME, cell-based, Hepatocyte; details: read-out: CLH
[4] = Half life in po dosed rat; type: ADME, organism-based; details: in vivo
[5] = Bioavailability in rat; type: ADME, organism-based; details: in vivo
[6] = Permeability across human Caco2 cells; type: ADME, cell-based; details: Caco-2, read-out: permeability

solubility at 24 h [1] [µg/mL]	SMILES	other results
2 (≈ 4.47 µM)	Cc1oc(C(=O)NS(=O)(=O)c2ccccc2)cc1COc1ccc(-c2ccccc2)cc1	
11 (≈ 23 µM)	COc1ccc(-c2ccc(OCc3cc(C(=O)NS(=O)(=O)c4ccccc4)oc3C)cc2)cc1	
< 0.6	Cc1oc(C(=O)NS(=O)(=O)c2ccccc2)cc1COc1ccc(-c2ccc(OC(F)F)cc2)cc1	
30 (≈ 62.7 µM)	COc1ccc(-c2ccc(OCc3cc(C(=O)NS(=O)(=O)c4ccccc4)oc3C)cc2)nc1	
7 (≈ 15.8 µM)	CCCS(=O)(=O)NC(=O)c1cc(COc2ccc(-c3ccc(OC)cc3)cc2)c(C)o1	
20 (≈ 40.5 µM)	COc1ccc(-c2ccc(OCc3cc(C(=O)NS(=O)(=O)c4ccc(O)cc4)oc3C)cc2)cc1	
0.2 (≈ 0.403 µM)	COc1ccc(-c2ccc(OCc3cc(C(=O)NS(=O)(=O)c4c(C)noc4C)oc3C)cc2)cc1	
20 (≈ 40.7 µM)	COc1ccc(-c2ccc(OCc3cc(C(=O)NS(=O)(=O)c4ccccc4)oc3C)cc2)c(C)c1	
8 (≈ 16.8 µM)	COc1ccccc1-c1ccc(OCc2cc(C(=O)NS(=O)(=O)c3ccccc3)oc2C)cc1	
< 0.6	COc1ccc(-c2ccc(OCc3cc(C(=O)NS(=O)(=O)c4ccc(CN)cc4)oc3C)cc2)cc1	
10 (≈ 22.5 µM)	COc1ccc(-c2ccc(OCc3cc(C(=O)NS(=O)(=O)N(C)C)oc3C)cc2)cc1	
5 (≈ 10.2 µM)	COc1ccc(-c2ccc(OCc3cc(C(=O)NS(=O)(=O)c4ccc(C)cn4)oc3C)cc2)cc1	
20 (≈ 37.8 µM)	COc1ccc(-c2ccc(OCc3cc(C(=O)NS(=O)(=O)CCCN4CCOCC4)oc3C)cc2)cc1	
300 (≈ 672 µM)	Cc1oc(C(=O)NS(=O)(=O)c2ccccc2)cc1CNc1ccc(-c2ccccc2)cc1	
20 (≈ 43.4 µM)	Cc1ccccc1S(=O)(=O)NC(=O)c1cc(CNc2ccc(-c3ccccc3)cc2)c(C)o1	
< 0.6	Cc1noc(C)c1S(=O)(=O)NC(=O)c1cc(COc2ccc(-c3ccc(OC(F)F)cc3)cc2)c(C)o1	
20 (≈ 38 µM)	Cc1ccccc1S(=O)(=O)NC(=O)c1cc(CNc2ccc(-c3ccc(OC(F)F)cc3)cc2)c(C)o1	
90 (≈ 181 µM)	COc1ccc(-c2ccc(OCc3cc(C(=O)NS(=O)(=O)c4c(C)noc4C)oc3C)cc2)nc1	
200 (≈ 392 µM)	COc1ccc(-c2ccc(OCc3cc(C(=O)NS(=O)(=O)c4c(C)noc4C)oc3C)cc2)c(C)c1	
10 (≈ 20.3 µM)	COc1ccc(-c2ccc(OCc3cc(C(=O)NS(=O)(=O)c4ccccc4C)oc3C)cc2)nc1 [BGC-20-1531 FREE BASE]	
	COc1ccc(-c2ccc(OCc3cc(C(=O)[N-]S(=O)(=O)c4ccccc4C)oc3C)cc2)nc1.[Na+] [BGC-20-1531]	CLint scaled [2]: 6.5 mL/min/kg; CLint scaled [3]: 2.7 mL/min/kg; half-life [4]: 2.3 h; bioavailability [5]: 84%; Papp [6]: 14.5 ×10⁻⁶ cm/s
